Experimental findings from article PMC13252604, “First Generation Proteolysis Targeting Chimeras (PROTACs) for the Treatment of Progeria” (Advanced Science, 2026) are described below.

Structures are written as SMILES. A value given as a limit tells only on which side of the number the result lay.

Data set [1] concerns HGADFN167 Lmna^G608G/G608G fibroblasts. In words: Senescence-associated β-galactosidase activity in human progeroid cells. In kind it is cell-based. To be noted: HGADFN167, 5 µM, 20 days. An excerpt:
FIGURE 6 (A) Representative cropped immunoblots and progerin quantification in human Lmna^G608G/G608G fibroblasts. MW, molecular weight (in kDa) markers. […] (B) PROTAC 2 increases cell proliferation (upper panels) and decreases the number of misshapen nuclei (lower panels). White arrows highlight selected misshapen nuclei. (C) PROTAC 2 decreases senescence‐associated β‐galactosidase (SA‐βgal) activity, interleukin (IL) 6, p16 and p21 senescent markers. Bar graphs show mean±sem of 2 (SA‐βgal and p21) or 3 (IL‐6 and p16) independent experiments performed in triplicate. (D) PROTAC 2 decreases phosphorylated histone 2AX (pH2AX) and increases trimethylated histone 3 (H3K9Me3) levels. (E) PROTAC 2 increases the oxygen consumption rate (OCR), ATP production and the number of healthy mitochondria in human progeroid cells. […] Data were analysed using one‐way ANOVA followed by Dunnett's post–hoc test vs vehicle (panel A) or vs G608G cells (panels B‐E). ^*, p < 0.05; ^**, p < 0.01; ^***, p < 0.001; ^****, p < 0.0001. […]
compound exposure. […] Samples were analysed by electrophoresis in polyacrylamide gels (All Kd SDS-PAGE, BioRad) and the proteins transferred to nitrocellulose membranes (GE Healthcare, Amersham). […]
GAPDH (Cell Signaling, 2118S, 1:5000) and anti-actin (Santa Cruz Biotechnology, sc-376248, 1:500) as antibodies for loading control. […] The bands were quantified by densitometry using the […]

The next data set in a line: Stability in human serum. In kind it is in vitro ADME. An excerpt: TABLE 1 Pharmacokinetic parameters of PROTAC 2. | column: Stability (hours) ^b / h‐serum
Another data set addresses human serum albumin (Homo sapiens, UniProt P02768). In words: Human serum albumin binding. An excerpt: TABLE 1 Pharmacokinetic parameters of PROTAC 2. | column: HSA binding ^c

Sequence of human serum albumin (P02768 25-609): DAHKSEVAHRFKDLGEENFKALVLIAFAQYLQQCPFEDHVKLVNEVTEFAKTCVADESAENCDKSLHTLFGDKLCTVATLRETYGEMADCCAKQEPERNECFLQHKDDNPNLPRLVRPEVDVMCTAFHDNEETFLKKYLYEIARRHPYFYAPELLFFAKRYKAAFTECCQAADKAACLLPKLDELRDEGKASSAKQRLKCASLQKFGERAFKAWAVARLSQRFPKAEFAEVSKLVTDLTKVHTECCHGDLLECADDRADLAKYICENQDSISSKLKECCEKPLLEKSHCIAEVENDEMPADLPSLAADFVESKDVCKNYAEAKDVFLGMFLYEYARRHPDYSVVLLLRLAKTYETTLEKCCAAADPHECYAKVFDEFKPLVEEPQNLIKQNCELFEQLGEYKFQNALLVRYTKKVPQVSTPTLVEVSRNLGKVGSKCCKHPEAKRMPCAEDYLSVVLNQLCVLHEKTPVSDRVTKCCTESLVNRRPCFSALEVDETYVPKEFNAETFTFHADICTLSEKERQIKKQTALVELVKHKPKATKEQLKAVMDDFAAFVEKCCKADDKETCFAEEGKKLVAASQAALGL

Regarding `CC1(C)Oc2cc3oc(=O)ccc3cc2C[C@@H]1OC(=O)CCCCCNc1cccc2c1C(=O)N(C1CCC(=O)NC1=O)C2=O` (stereo partly shown) [compound 2], the “SA‐βgal senescent marker” value in data set [1] is recorded as “significantly reduced”. The “Stability (hours) h‐serum” value in the data set “Stability in human serum” was greater than 24 h. At human serum albumin, this compound registered an HSA binding of 99%. In addition, the Kd at human serum albumin (read-out: HSA binding K D) was 5.8 µM.
